Experimental data published in ChEMBL document CHEMBL5352492, “Application of deep generative model for design of Pyrrolo[2,3-d] pyrimidine derivatives as new selective TANK binding kinase 1 (TBK1) inhibitors” (Eur J Med Chem, 2023).
Calls of active or inactive are those of the source. The rule behind the calls is not given here.

Tests used:
[1] = biological target: T1, Serine/threonine-protein kinase TBK1 (Homo sapiens) (UniProt Q9UHD2); assay: Inhibition of TBK1 (unknown origin) incubated at 100 nM for 1 hr in presence of ATP by FRET based Z'-Lyte assay relative to control
T1 sequence (whole entry): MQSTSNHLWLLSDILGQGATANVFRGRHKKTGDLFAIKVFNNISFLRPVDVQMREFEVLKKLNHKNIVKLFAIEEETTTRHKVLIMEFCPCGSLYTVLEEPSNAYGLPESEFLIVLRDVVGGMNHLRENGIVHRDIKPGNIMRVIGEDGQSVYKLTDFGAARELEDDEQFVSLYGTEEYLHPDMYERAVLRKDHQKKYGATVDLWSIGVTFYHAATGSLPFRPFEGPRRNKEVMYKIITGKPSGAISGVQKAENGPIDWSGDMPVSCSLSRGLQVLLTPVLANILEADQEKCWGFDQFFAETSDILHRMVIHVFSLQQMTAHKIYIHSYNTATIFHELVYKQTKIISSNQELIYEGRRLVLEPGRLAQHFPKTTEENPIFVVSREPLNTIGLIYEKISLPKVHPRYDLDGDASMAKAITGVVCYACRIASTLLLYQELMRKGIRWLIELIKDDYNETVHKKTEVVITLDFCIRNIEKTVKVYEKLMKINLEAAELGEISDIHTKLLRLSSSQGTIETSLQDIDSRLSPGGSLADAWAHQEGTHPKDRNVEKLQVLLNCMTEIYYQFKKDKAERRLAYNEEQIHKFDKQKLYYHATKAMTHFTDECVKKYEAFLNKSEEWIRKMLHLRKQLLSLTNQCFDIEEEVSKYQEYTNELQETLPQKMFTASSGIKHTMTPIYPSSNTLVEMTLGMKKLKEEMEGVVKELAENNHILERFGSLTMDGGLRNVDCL

[2] = biological target: T1, Serine/threonine-protein kinase TBK1 (Homo sapiens); assay: Inhibition of TBK1 (unknown origin) incubated at 1000 nM for 1 hr in presence of ATP by FRET based Z'-Lyte assay relative to control
[3] = biological target: T2, Serine/threonine-protein kinase TBK1 (Homo sapiens, UniProt Q9UHD2); assay: Inhibition of TBK1 (unknown origin) incubated for 1 hr in presence of ATP by FRET based Z'-Lyte assay
T2 sequence (Q9UHD2 whole entry): T1 sequence (whole entry)

[4] = biological target: T1, Serine/threonine-protein kinase TBK1 (Homo sapiens); assay: Inhibition of TBK1 (unknown origin) incubated at 10 nM for 1 hr in presence of ATP by FRET based Z'-Lyte assay relative to control
[5] = tested on: THP1-Blue ISG; assay: Inhibition of LPS-induced ifn-beta in human THP1-Blue ISG cells treated at 1 uM for 2 hrs RTq-PCR analysis; format: functional, cell-based
[6] = tested on: RAW264.7; assay: Inhibition of LPS-induced cxcl10 in mouse RAW264.7 cells treated at 1 uM for 2 hrs RTq-PCR analysis; format: functional, cell-based
[7] = tested on: RAW264.7; assay: Inhibition of LPS-induced ifn-beta in mouse RAW264.7 cells treated at 1 uM for 2 hrs RTq-PCR analysis; format: functional, cell-based
[8] = tested on: THP1-Blue ISG; assay: Inhibition of LPS-induced cxcl10 in human THP1-Blue ISG cells treated at 1 uM for 2 hrs RTq-PCR analysis; format: functional, cell-based

Compound | inhibition [1] [%] | inhibition [2] [%] | IC50 [3] [nM] | inhibition [4] [%] | inhibition [5] | inhibition [6] | inhibition [7] | inhibition [8]
O=C(NCCCn1ccc2cnc(Nc3cccc(CN4CCN(C5COC5)CC4)c3)nc21)C1CCC1 | 64 | 92.3 | 50 | 14.7 | – | – | – | –
O=C(C1CCC1)N1CCC(n2ccc3cnc(Nc4cccc(CN5CCOCC5)c4)nc32)CC1 | < 0 | < 0 | – | < 0 | – | – | – | –
O=C(Nc1ccc(-n2ccc3cnc(Nc4cccc(CN5CCOCC5)c4)nc32)nc1)C1CCC1 | < 0 | 1.8 | – | < 0 | – | – | – | –
O=C(NCCCn1cnc2cnc(Nc3cccc(CN4CCOCC4)c3)nc21)C1CCC1 | < 0 | 25.5 | – | < 0 | – | – | – | –
O=C(NCCCNc1nc(Nc2cccc(CN3CCOCC3)c2)ncc1C1CC1)C1CCC1 | – | – | – | – | Active | Active | Active | Active
